From US20240067632A1, “WEE1 Degrading Compounds and Uses Thereof” (Bristol-Myers Squibb Company, priority 2022, published 2024)

Molecular target: T1, WEE1 (Homo sapiens, UniProt P30291+Q96SW2)
T1 construct: C-terminal ePL-tagged (DiscoverX, Fremont, CA) full-length WEE1 expression construct; expressed in transfected cells; host or cells: LentiX-HEK293T (Invitrogen), lentiviral transduction; co-expressing GSPT1-GN (G576N, lacking the first 158 amino acids)
Experiment: WEE1-ePL degradation assay (LentiX-WEE1-ePL-GSPT1-ND cells, InCELL Hunter luminescence, 4 h)
Format: cell-based
Conditions: 293T-LentiX WEE1-ePL cells, lower limit of the fit (0 = luciferase inhibitor, Ymax = DMSO control)
Protocol: To generate LentiX-WEE1-ePL-GSPT1-ND cells for the WEE1 degradation assay, LentiX-HEK293T (Invitrogen) were transduced by lentivirus with a C-terminal ePL-tagged (DiscoverX, Fremont, CA) full-length WEE1 expression construct. […] Cells were selected and maintained in complete DMEM media (DMEM, 10% Heat Inactivated FBS, 400 μg/mL Geneticin, and 1 μg/mL puromycin at 37 C and 5% CO2). Cells were passaged every 3-4 days by reseeding 1×10^6 cells in a T150 flask.
Cells were dispensed into 384-well white plates (Corning #3570, NY) that were pre-spotted with compounds using an acoustic dispenser (Echo acoustic transfer system, Beckman Coulter Life Sciences, Carlsbad, CA) as a 10-point dose-response curve with a 3-fold dilution starting at either 1 uM or 10 uM and including a DMSO control. Twenty-five microliters of media containing 2500 cells for LentiX-oeWEE1-ePL was dispensed per well. Assay plates were incubated at 37° C. with 5% CO2 for four hours (WEE1) After incubation, 25 μL of the InCELL Hunter™ Detection Reagent Working Solution (DiscoverX, Fremont, CA) was added to each well and incubated at room temperature for 30 minutes protected from light. After 30 minutes, luminescence was read on a PHERAstar luminometer (Cary, NC).
To determine the half-maximal effective concentration (EC50) values for WEE1-ePL degradation, a four parameter logistic model was used: (Sigmoidal Dose-Response Model) (FIT=(A+((B−A)/1+((C/x)^D)))) where C is the inflection point (EC50), D is the Hill slope, and A and B are the low and high limits of the fit respectively). The lower limit of the fit (value A) is referred to as Ymin. […] The maximum limit constraint, Ymax, is similarly derived using DMSO control. The curves were processed and evaluated using Activity Base (IDBS, Alameda, CA).

Row | Compound | 293T-LentiX WEE1-ePL Degradation 4 hr (Ymin)
1 | O=C1CCC(N2C(=O)c3ccc(O[C@@H]4CCN(Cc5cnc6ccccc6c5)C4)cc3C2=O)C(=O)N1 (stereo partly drawn) [2-(2,6-dioxopiperidin-3-yl)-5-{[(3R)-1-[(quinolin-3-yl)methyl]pyrrolidin-3-yl]oxy}-2,3-dihydro-1H-isoindole-1,3-dione] | 86.31
2 | O=C1CCC(N2C(=O)c3ccc(O[C@@H]4CCN(Cc5ccnc6ccccc56)C4)cc3C2=O)C(=O)N1 (stereo partly drawn) [2-(2,6-dioxopiperidin-3-yl)-5-{[(3R)-1-[(quinolin-4-yl)methyl]pyrrolidin-3-yl]oxy}-2,3-dihydro-1H-isoindole-1,3-dione] | 90.1
3 | O=C1CCC(N2C(=O)c3ccc(O[C@@H]4CCN(Cc5cccc6ncccc56)C4)cc3C2=O)C(=O)N1 (stereo partly drawn) [2-(2,6-dioxopiperidin-3-yl)-5-{[(3R)-1-[(quinolin-5-yl)methyl]pyrrolidin-3-yl]oxy}-2,3-dihydro-1H-isoindole-1,3-dione] | 89.045
4 | O=C1CCC(N2C(=O)c3ccc(O[C@@H]4CCN(Cc5ccc6ncccc6c5)C4)cc3C2=O)C(=O)N1 (stereo partly drawn) [2-(2,6-dioxopiperidin-3-yl)-5-{[(3R)-1-[(quinolin-6-yl)methyl]pyrrolidin-3-yl]oxy}-2,3-dihydro-1H-isoindole-1,3-dione] | 83.71
5 | O=C1CCC(N2Cc3cc(O[C@H]4CCN(Cc5cccc6ncncc56)C4)ccc3C2=O)C(=O)N1 (stereo partly drawn) [3-(1-oxo-5-{[(3S)-1-[(quinazolin-5-yl)methyl]pyrrolidin-3-yl]oxy}-2,3-dihydro-1H-isoindol-2-yl)piperidine-2,6-dione] | 58.74

Same assay, conditions: 293T-LentiX WEE1-ePL cells, lower limit of the fit (Ymin=0 luciferase inhibitor, Ymax DMSO control)

Row | Compound | 293T-LentiX WEE1-ePL Degradation 4 hr (Ymin)
6 | O=C1CCC(N2Cc3cc(O[C@@H]4CCN(c5cnccn5)C4)ccc3C2=O)C(=O)N1 (stereo partly drawn) [3-(1-oxo-5-{[(3R)-1-(pyrazin-2-yl)pyrrolidin-3-yl]oxy}-2,3-dihydro-1H-isoindol-2-yl)piperidine-2,6-dione] | 110
7 | O=C1CCC(N2Cc3cc(O[C@@H]4CCN(Cc5c[nH]c6ncccc56)C4)ccc3C2=O)C(=O)N1 (stereo partly drawn) [3-(1-oxo-5-{[(3R)-1-({1H-pyrrolo[2,3-b]pyridin-3-yl}methyl)pyrrolidin-3-yl]oxy}-2,3-dihydro-1H-isoindol-2-yl)piperidine-2,6-dione] | 87.61
8 | O=C1CCC(N2Cc3cc(O[C@@H]4CCN(Cc5c[nH]c6cnccc56)C4)ccc3C2=O)C(=O)N1 (stereo partly drawn) [3-(1-oxo-5-{[(3R)-1-({1H-pyrrolo[2,3-c]pyridin-3-yl}methyl)pyrrolidin-3-yl]oxy}-2,3-dihydro-1H-isoindol-2-yl)piperidine-2,6-dione] | 93.39
9 | O=C1CCC(N2Cc3cc(O[C@@H]4CCN(Cc5cnc6ccccc6c5)C4)ccc3C2=O)C(=O)N1 (stereo partly drawn) [3-(1-oxo-5-{[(3R)-1-[(quinolin-3-yl)methyl]pyrrolidin-3-yl]oxy}-2,3-dihydro-1H-isoindol-2-yl)piperidine-2,6-dione] | 83.91
10 | O=C1CCC(N2Cc3cc(O[C@@H]4CCN(Cc5ccnc6ccccc56)C4)ccc3C2=O)C(=O)N1 (stereo partly drawn) [3-(1-oxo-5-{[(3R)-1-[(quinolin-4-yl)methyl]pyrrolidin-3-yl]oxy}-2,3-dihydro-1H-isoindol-2-yl)piperidine-2,6-dione] | 87.11
11 | O=C1CCC(N2Cc3cc(O[C@@H]4CCN(Cc5cccc6ncccc56)C4)ccc3C2=O)C(=O)N1 (stereo partly drawn) [3-(1-oxo-5-{[(3R)-1-[(quinolin-5-yl)methyl]pyrrolidin-3-yl]oxy}-2,3-dihydro-1H-isoindol-2-yl)piperidine-2,6-dione] | 91.51
12 | O=C1CCC(N2Cc3cc(O[C@@H]4CCN(Cc5ccc6ncccc6c5)C4)ccc3C2=O)C(=O)N1 (stereo partly drawn) [3-(1-oxo-5-{[(3R)-1-[(quinolin-6-yl)methyl]pyrrolidin-3-yl]oxy}-2,3-dihydro-1H-isoindol-2-yl)piperidine-2,6-dione] | 90.24

Same assay, conditions: 293T-LentiX WEE1-ePL cells, read-out: 293T-LentiX WEE1-ePL Degradation 4 hr (EC50)

Row | Compound | DC50
13 | O=C1CCC(N2Cc3cc(O[C@H]4CCN(Cc5cccc6ncncc56)C4)ccc3C2=O)C(=O)N1 (stereo partly drawn) [3-(1-oxo-5-{[(3S)-1-[(quinazolin-5-yl)methyl]pyrrolidin-3-yl]oxy}-2,3-dihydro-1H-isoindol-2-yl)piperidine-2,6-dione] | 408 nM
